The nature of the assay: Odour Detection Threshold (ODT) / odour threshold. The following applies: for ODT: Odour Detection Threshold, table of compounds of Formula I.

In turn, `CC(C)(C)C/C=C/c1ccc2c(c1)OCC(=O)CO2` [Example 6, (1′E)-7-(4′,4′-Dimethylpent-1′-enyl)-2H-benzo[b][1,4]dioxepin-3(4H)-one] had an Odour threshold of 0.042 ng/L air and an ODT of 0.042 ng/L.

In turn, `CC/C=C/c1ccc2c(c1)OCC(=O)CO2` [Example 1, (1′E)-7-(But-1′-enyl)-2H-benzo[b][1,4]dioxepin-3(4H)-one] gave an Odour threshold of 0.00157 ng/L air and an ODT of 0.00157 ng/L.

As for `CC(C)C/C=C/c1ccc2c(c1)OCC(=O)CO2` [Example 2, (1′E)-7-(4′-Methylpent-1′-enyl)-2H-benzo[b][1,4]dioxepin-3(4H)-one], the Odour threshold is reported as 0.00025 ng/L air and the ODT came to 0.00025 ng/L.

Consider `CCC/C=C/c1ccc2c(c1)OCC(=O)CO2` [Example 5, (1′E)-7-(Pent-1′-enyl)-2H-benzo[b][1,4]dioxepin-3(4H)-one], for which the Odour threshold is on record as 0.00314 ng/L air and the ODT is recorded as 0.00314 ng/L.

The molecule `C/C=C/C=C/c1ccc2c(c1)OCC(=O)CO2` [Example 4, (1′E,3′E)-7-(Penta-1′,3′-dienyl)-2H-benzo[b][1,4]dioxepin-3(4H)-one] yielded an Odour threshold of 0.000141 ng/L air and an ODT of 0.000141 ng/L.

Molecule `CCC(C)/C=C/c1ccc2c(c1)OCC(=O)CO2` (stereo not shown) [Example 8, (1′E)-7-(3′-Methylpent-1′-enyl)-2H-benzo[b][1,4]-dioxepin-3(4H)-one] gave an Odour threshold of 0.021 ng/L air and an ODT of 0.021 ng/L.

`CC(C)=Cc1ccc2c(c1)OCC(=O)CO2` [Example 7, (1′E)-7-(2′-Methylprop-1′-enyl)-2H-benzo[b][1,4]dioxepin-3(4H)-one] had an Odour threshold of 0.42 ng/L air and an ODT of 0.42 ng/L.

`CC(C)/C=C/c1ccc2c(c1)OCC(=O)CO2` [Example 3, (1′E)-7-(3′-Methylbut-1′-enyl)-2H-benzo[b][1,4]dioxepin-3(4H)-one] yielded an Odour threshold of 0.015 ng/L air and an ODT of 0.015 ng/L.

Source of the values: patent US20120309670A1, “7-(ALK-1'-ENYL)-2H-BENZO[B][1,4]DIOXEPIN-3(4H)-ONES AND THEIR USE IN FRAGRANCE APPLICATIONS” (Givaudan SA, priority 2010, published 2012).
